What was measured:
human orexin 2 receptors = target: T1, human orexin 2 receptors (Homo sapiens, UniProt O43614); test: Calcium accumulation in cells (FLIPR), hOx2R; type: cell-based; settings: cells expressing human orexin 2 receptor; inhibition of orexin A-induced calcium accumulation; Cheng and Prusoff correction
T1 sequence (O43614 1-444): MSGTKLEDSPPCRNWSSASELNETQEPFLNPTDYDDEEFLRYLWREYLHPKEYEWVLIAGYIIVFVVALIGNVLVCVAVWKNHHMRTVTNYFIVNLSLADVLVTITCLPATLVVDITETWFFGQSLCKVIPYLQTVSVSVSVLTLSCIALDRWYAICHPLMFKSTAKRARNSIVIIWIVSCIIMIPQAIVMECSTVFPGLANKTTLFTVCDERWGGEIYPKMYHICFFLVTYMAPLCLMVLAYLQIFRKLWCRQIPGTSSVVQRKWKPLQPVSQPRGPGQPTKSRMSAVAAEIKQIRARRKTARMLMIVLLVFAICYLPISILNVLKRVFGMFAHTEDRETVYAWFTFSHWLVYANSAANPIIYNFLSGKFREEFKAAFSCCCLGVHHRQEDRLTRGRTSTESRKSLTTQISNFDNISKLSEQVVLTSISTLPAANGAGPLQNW

human orexin 1 receptors = target: T2, human orexin 1 receptors (Homo sapiens, UniProt O43613); test: Calcium accumulation in cells (FLIPR), hOx1R; settings: for inhibition at 10 µM: read-out: FLIPR hOx1R % inhibition value
T2 sequence (O43613 1-425): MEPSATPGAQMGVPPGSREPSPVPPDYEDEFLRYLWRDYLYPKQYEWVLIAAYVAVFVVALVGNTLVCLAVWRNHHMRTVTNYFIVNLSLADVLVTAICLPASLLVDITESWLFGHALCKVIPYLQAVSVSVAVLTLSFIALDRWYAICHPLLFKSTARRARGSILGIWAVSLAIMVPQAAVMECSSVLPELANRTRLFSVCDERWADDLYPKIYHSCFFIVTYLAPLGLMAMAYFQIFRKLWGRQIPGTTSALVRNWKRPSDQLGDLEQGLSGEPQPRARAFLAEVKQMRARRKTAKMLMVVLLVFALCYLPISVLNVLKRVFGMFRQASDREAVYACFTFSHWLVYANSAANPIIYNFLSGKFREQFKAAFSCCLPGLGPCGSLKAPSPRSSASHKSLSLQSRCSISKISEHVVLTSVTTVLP

SMILES	Ki (human orexin 2 receptors) [µM]	inhibition at 10 µM (human orexin 1 receptors) [%]	Ki (human orexin 1 receptors) [µM]
COc1cncc(N2CCC3(CCCN(Cc4cccc5c4OCCO5)C3=O)CC2)n1 [Example 56, 2-((2,3-dihydrobenzo[b][1,4]dioxin-5-yl)methyl)-9-(6-methoxypyrazin-2-yl)-2,9-diazaspiro[5.5]undecan-1-one]	0.718	35	–
Cc1cncc(N2CCC3(CCCN(Cc4c[nH]c5ncccc45)C3=O)CC2)n1 [Example 19, 2-((1H-pyrrolo[2,3-b]pyridin-3-yl)methyl)-9-(6-methylpyrazin-2-yl)-2,9-diazaspiro[5.5]undecan-1-one]	0.147	31	–
N#Cc1ccnc(N2CCC3(CCCN(Cc4ccccc4-n4nccn4)C3=O)CC2)c1 [Example 27, 2-(2-(2-(2H-1,2,3-triazol-2-yl)benzyl)-1-oxo-2,9-diazaspiro[5.5]undecan-9-yl)isonicotinonitrile]	0.645	< 10	–
COc1ccc(N2CCC3(CCCN(Cc4c[nH]c5ccccc45)C3=O)CC2)cc1OC [Example 59, 2-((1H-indol-3-yl)methyl)-9-(3,4-dimethoxyphenyl)-2,9-diazaspiro[5.5]undecan-1-one]	1.38	15	–
Cc1ccnc(N2CCC3(CCCC(=O)N3Cc3ccc(-c4ncccn4)cc3)CC2)n1 [Example 90, 9-(4-methylpyrimidin-2-yl)-1-(4-(pyrimidin-2-yl)benzyl)-1,9-diazaspiro[5.5]undecan-2-one]	–	< 10	–
Cc1ccnc(N2CCC3(CCCC(=O)N3Cc3cccc(N4CCCC4)n3)CC2)n1 [Example 98, 9-(4-methylpyrimidin-2-yl)-1-((6-(pyrrolidin-1-yl)pyridin-2-yl)methyl)-1,9-diazaspiro[5.5]undecan-2-one]	–	< 10	–
O=C1N(Cc2c[nH]c3ncccc23)CCCC12CCN(c1cncc(Cl)n1)CC2 [Example 18, 2-((1H-pyrrolo[2,3-b]pyridin-3-yl)methyl)-9-(6-chloropyrazin-2-yl)-2,9-diazaspiro[5.5]undecan-1-one]	0.123	–	3.2
CCOc1ccnc(N2CCC3(CCCN(Cc4c[nH]c5ccccc45)C3=O)CC2)n1 [Example 52, 2-((1H-indol-3-yl)methyl)-9-(4-ethoxypyrimidin-2-yl)-2,9-diazaspiro[5.5]undecan-1-one]	0.125	–	1.06
Cc1cccc(N2CCC3(CCCN(Cc4c[nH]c5ccccc45)C3=O)CC2)c1 [Example 57, 2-((1H-indol-3-yl)methyl)-9-m-tolyl-2,9-diazaspiro[5.5]undecan-1-one]	0.171	–	3.75
N#Cc1cncc(N2CCC3(CCCN(Cc4c[nH]c5ccccc45)C3=O)CC2)n1 [Example 77, 6-(2-((1H-indol-3-yl)methyl)-1-oxo-2,9-diazaspiro[5.5]undecan-9-yl)pyrazine-2-carbonitrile]	0.173	–	3.63
N#Cc1cccc(N2CCC3(CCCN(Cc4ccccc4-n4nccn4)C3=O)CC2)n1 [Example 26, 6-(2-(2-(2H-1,2,3-triazol-2-yl)benzyl)-1-oxo-2,9-diazaspiro[5.5]undecan-9-yl)picolinonitrile]	–	< 10	–
N#Cc1ccc(N2CCC3(CCCN(Cc4c[nH]c5ccccc45)C3=O)CC2)nc1 [Example 69, 6-(2-((1H-indol-3-yl)methyl)-1-oxo-2,9-diazaspiro[5.5]undecan-9-yl)nicotinonitrile]	0.32	31	–
Cc1ccc(N2CCC3(CCCN(Cc4c[nH]c5ccccc45)C3=O)CC2)nc1C [Example 64, 2-((1H-indol-3-yl)methyl)-9-(5,6-dimethylpyridin-2-yl)-2,9-diazaspiro[5.5]undecan-1-one]	0.15	–	3.37
O=C1N(Cc2c[nH]c3ccccc23)CCCC12CCN(c1ccc(C(F)(F)F)cn1)CC2 [Example 89, 2-((1H-indol-3-yl)methyl)-9-(5-(trifluoromethyl)pyridin-2-yl)-2,9-diazaspiro[5.5]undecan-1-one]	0.426	18	–
Cc1ccc(N2CCC3(CCCN(Cc4c[nH]c5ccccc45)C3=O)CC2)nc1 [Example 68, 2-((1H-indol-3-yl)methyl)-9-(5-methylpyridin-2-yl)-2,9-diazaspiro[5.5]undecan-1-one]	0.798	14	–
Cc1nccc(N2CCC3(CCCN(Cc4c[nH]c5ccccc45)C3=O)CC2)n1 [Example 70, 2-((1H-indol-3-yl)methyl)-9-(2-methylpyrimidin-4-yl)-2,9-diazaspiro[5.5]undecan-1-one]	0.24	–	1.81

SMILES	Ki (human orexin 2 receptors) [µM]	inhibition at 10 µM (human orexin 1 receptors) [%]	Ki (human orexin 1 receptors) [µM]
Cc1nnc(N2CCC3(CCCN(Cc4c[nH]c5ccccc45)C3=O)CC2)s1 [Example 85, 2-((1H-indol-3-yl)methyl)-9-(5-methyl-1,3,4-thiadiazol-2-yl)-2,9-diazaspiro[5.5]undecan-1-one]	0.664	42	–
Cc1ccnc(N2CCC3(CCCC(=O)N3Cc3cc(C#N)ccc3F)CC2)n1 [Example 101, 4-fluoro-3-((9-(4-methylpyrimidin-2-yl)-2-oxo-1,9-diazaspiro[5.5]undecan-1-yl)methyl)benzonitrile]	–	< 10	–
COCc1cccc(N2CCC3(CCCN(Cc4c[nH]c5ccccc45)C3=O)CC2)n1 [Example 73, 2-((1H-indol-3-yl)methyl)-9-(6-(methoxymethyl)pyridin-2-yl)-2,9-diazaspiro[5.5]undecan-1-one]	0.639	30	–
Cc1cccnc1N1CCC2(CCCN(Cc3c[nH]c4ccccc34)C2=O)CC1 [Example 66, 2-((1H-indol-3-yl)methyl)-9-(3-methylpyridin-2-yl)-2,9-diazaspiro[5.5]undecan-1-one]	0.991	36	–
COc1cncc(N2CCC3(CCCC(=O)N3Cc3c[nH]c4ccccc34)CC2)n1 [Example 55, 1-((1H-indol-3-yl)methyl)-9-(6-methoxypyrazin-2-yl)-1,9-diazaspiro[5.5]undecan-2-one]	0.727	40	–
CN(C)c1ccnc(N2CCC3(CCCN(Cc4c[nH]c5ccccc45)C3=O)CC2)n1 [Example 46, 2-((1H-indol-3-yl)methyl)-9-(4-(dimethylamino)pyrimidin-2-yl)-2,9-diazaspiro[5.5]undecan-1-one]	0.143	25	–
N#Cc1ccc(N2CCC3(CCCC(=O)N3Cc3cccc4[nH]ccc34)CC2)nc1 [Example 14, 6-(1-((1H-indol-4-yl)methyl)-2-oxo-1,9-diazaspiro[5.5]undecan-9-yl)nicotinonitrile]	0.2	13	–
COCc1cccc(CN2CCCC3(CCN(c4nc(C)cc(OC)n4)CC3)C2=O)c1 [Example 127, 9-(4-methoxy-6-methylpyrimidin-2-yl)-2-(3-(methoxymethyl)benzyl)-2,9-diazaspiro[5.5]undecan-1-one]	0.1	–	2.11
Cc1cc(N2CCC3(CCCN(Cc4c[nH]c5ccccc45)C3=O)CC2)ccn1 [Example 100, 2-((1H-indol-3-yl)methyl)-9-(2-methylpyridin-4-yl)-2,9-diazaspiro[5.5]undecan-1-one]	–	< 10	–
Cc1ccnc(N2CCC3(CCCC(=O)N3Cc3cccc(-n4nccn4)c3)CC2)n1 [Example 94, 1-(3-(2H-1,2,3-triazol-2-yl)benzyl)-9-(4-methylpyrimidin-2-yl)-1,9-diazaspiro[5.5]undecan-2-one]	–	36	–
COc1cc(N2CCC3(CCCN(Cc4c[nH]c5ccccc45)C3=O)CC2)ccn1 [Example 61, 2-((1H-indol-3-yl)methyl)-9-(2-methoxypyridin-4-yl)-2,9-diazaspiro[5.5]undecan-1-one]	–	–	3.84
Cc1ccnc(N2CCC3(CCCC(=O)N3Cc3nnc(-c4ccccc4)o3)CC2)n1 [Example 95, 9-(4-methylpyrimidin-2-yl)-1-((5-phenyl-1,3,4-oxadiazol-2-yl)methyl)-1,9-diazaspiro[5.5]undecan-2-one]	–	10	–
O=C1N(Cc2c[nH]c3ccccc23)CCCC12CCN(c1cccc(O)n1)CC2 [Example 84, 2-((1H-indol-3-yl)methyl)-9-(6-hydroxypyridin-2-yl)-2,9-diazaspiro[5.5]undecan-1-one]	–	24	–
Cc1nnc(N2CCC3(CCCN(Cc4c[nH]c5ccccc45)C3=O)CC2)o1 [Example 17, 2-((1H-indol-3-yl)methyl)-9-(5-methyl-1,3,4-oxadiazol-2-yl)-2,9-diazaspiro[5.5]undecan-1-one]	–	12	–
Cc1ccnc(N2CCC3(CCCC(=O)N3Cc3cccc(-c4nc(C)no4)c3)CC2)n1 [Example 97, 1-(3-(3-methyl-1,2,4-oxadiazol-5-yl)benzyl)-9-(4-methylpyrimidin-2-yl)-1,9-diazaspiro[5.5]undecan-2-one]	–	15	–

Reference: patent publication US20120101110A1, “Diaza-spiro[5.5]undecanes” (priority 2010, published 2012)
